{"source": "PubChem BioAssay AID513", "about": "(SGCOxCompounds, 2006)", "biological_target": "Casein kinase I isoform gamma-1 (Homo sapiens) (UniProt Q9HCP0)", "sequence (Q9HCP0 whole entry, looked up, canonical isoform)": "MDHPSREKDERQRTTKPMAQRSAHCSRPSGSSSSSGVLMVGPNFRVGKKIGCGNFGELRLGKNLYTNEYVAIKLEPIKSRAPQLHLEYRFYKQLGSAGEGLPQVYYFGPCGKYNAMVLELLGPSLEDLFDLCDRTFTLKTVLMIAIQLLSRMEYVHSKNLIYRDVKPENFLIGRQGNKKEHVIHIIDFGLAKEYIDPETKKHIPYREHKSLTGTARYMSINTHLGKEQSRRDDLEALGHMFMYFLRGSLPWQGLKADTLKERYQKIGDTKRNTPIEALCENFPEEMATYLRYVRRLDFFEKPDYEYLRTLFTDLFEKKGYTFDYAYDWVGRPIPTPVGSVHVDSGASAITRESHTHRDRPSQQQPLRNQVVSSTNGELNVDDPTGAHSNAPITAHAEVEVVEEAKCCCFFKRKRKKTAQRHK", "assay": "CSNK1G1 binders by thermal stabilization, biophysical, DSF, SYPRO orange, recombinant protein (AID 513)", "conditions": "at 10 µM, protein 2 µM, active compounds read high", "data": [{"smiles": "NC(=O)c1ccc(-c2nc(-c3ccc4c(c3)OCCO4)c(-c3ccccn3)[nH]2)cc1", "values": [{"measurement": "Tm shift", "value": 6.1, "unit": "Celsius"}]}, {"smiles": "Nc1nc(Nc2cccc(Cl)c2)sc1C(=O)c1ccc(F)cc1", "values": [{"measurement": "Tm shift", "value": 5.3, "unit": "Celsius"}]}, {"smiles": "CCn1cnc2c(Nc3cccc(Cl)c3)nc(N[C@@H]3CCCC[C@@H]3N)nc21", "values": [{"measurement": "Tm shift", "value": 5.8, "unit": "Celsius"}]}, {"smiles": "Clc1ccc(Nc2ncc(-c3cn[nH]c3)n3ccnc23)cc1", "values": [{"measurement": "Tm shift", "value": 3.6, "unit": "Celsius"}]}, {"smiles": "NC1=N/C(=C2\\CCNC(=O)c3[nH]ccc32)C(=O)N1", "values": [{"measurement": "Tm shift", "value": 3.6, "unit": "Celsius"}]}, {"smiles": "COc1ccc(Nc2nc(N)c(C(=O)c3ccc(OC)cc3)s2)cc1", "values": [{"measurement": "Tm shift", "value": 5.6, "unit": "Celsius"}]}, {"smiles": "Nc1nc(Nc2ccc(F)cc2)sc1C(=O)c1ccccc1", "values": [{"measurement": "Tm shift", "value": 4.1, "unit": "Celsius"}]}, {"smiles": "CSc1nc(-c2ccnc(NC(C)c3ccccc3)c2)c(-c2ccc(F)cc2)[nH]1", "note": "(configuration not stated)", "values": [{"measurement": "Tm shift", "value": 3.6, "unit": "Celsius"}]}, {"smiles": "O=c1c(O)c(-c2ccc(O)c(O)c2)oc2cc(O)cc(O)c12", "values": [{"measurement": "Tm shift", "value": 3.2, "unit": "Celsius"}]}, {"smiles": "O=c1[nH]c(O)c2c1c1c3ccccc3nc1n1cncc21", "values": [{"measurement": "Tm shift", "value": 4.3, "unit": "Celsius"}]}, {"smiles": "COc1ccc(Nc2nc(N)c(C(=O)c3ccc(Cl)cc3)s2)cc1", "values": [{"measurement": "Tm shift", "value": 4.1, "unit": "Celsius"}]}, {"smiles": "Cc1cc(Nc2nc(-c3ccccc3)nc3ccccc23)n[nH]1", "values": [{"measurement": "Tm shift", "value": 3.3, "unit": "Celsius"}]}, {"smiles": "CC(C)n1cnc2c(Nc3cccc(Cl)c3)nc(NCCO)nc21", "values": [{"measurement": "Tm shift", "value": 6.1, "unit": "Celsius"}]}, {"smiles": "CCN(CC)CCNC(=O)c1c(C)[nH]c(/C=C2\\C(=O)Nc3ccc(Cl)cc32)c1C", "values": [{"measurement": "Tm shift", "value": 4.3, "unit": "Celsius"}]}, {"smiles": "Oc1ccc(Nc2nccn3c(-c4cn[nH]c4)cnc23)cc1", "values": [{"measurement": "Tm shift", "value": 3.2, "unit": "Celsius"}]}, {"smiles": "Nc1nc(Nc2ccccc2F)sc1C(=O)c1ccc(Br)cc1", "values": [{"measurement": "Tm shift", "value": 3.9, "unit": "Celsius"}]}, {"smiles": "N#C/C(=C1\\Nc2ccccc2S1)c1ccnc(NCCc2cccnc2)n1", "values": [{"measurement": "Tm shift", "value": 3.7, "unit": "Celsius"}]}, {"smiles": "Nc1nc(Nc2ccccc2)sc1C(=O)c1ccc(F)cc1", "values": [{"measurement": "Tm shift", "value": 3.9, "unit": "Celsius"}]}, {"smiles": "COc1cc(/C=C/C(=O)CC(=O)/C=C/c2ccc(O)c(OC)c2)ccc1O", "values": [{"measurement": "Tm shift", "value": 4.5, "unit": "Celsius"}]}, {"smiles": "O=Nc1c(-c2c(O)[nH]c3cc(Br)ccc23)[nH]c2ccccc12", "values": [{"measurement": "Tm shift", "value": 3.5, "unit": "Celsius"}]}, {"smiles": "O=Nc1c(-c2c(O)[nH]c3ccc(S(O)(O)O)cc23)[nH]c2ccccc12", "values": [{"measurement": "Tm shift", "value": 4, "unit": "Celsius"}]}, {"smiles": "NC1=N/C(=C2/CCNC(=O)c3[nH]c(Br)cc32)C(=O)N1", "values": [{"measurement": "Tm shift", "value": 5.7, "unit": "Celsius"}]}]}
